Patent US7157570B2, “Human ribonucleotide reductase M2 subunit” (priority 2002, dated 2007)

How the values were obtained:
[1] = tested on: hRRM2 protein in KB cells; assay: Western blot of hRRM2 protein after exposure to HU; type: cell-based, human; settings: 0.1 mM HU, 4-hour point
KB cells [2] = assay: cell cycle analysis by flow cytometry; type: cell-based, human; settings: 4 to 8 hours of exposure to HU
Protocol: The cell cycle analysis was performed at flowcytometry core facility of City of Hope National Medical Center. The percent of cells in each phase of the cell cycle was analyzed by ModFit software. The protocol was summarized as below. Cells were trypsinized, washed twice with PBS, and resuspended in 1 ml PBS. 7 ml 0.5 M citric acid buffer (pH 2.35) was added and samples were stored overnight at room temperature in the dark. On the second day, the cells were placed at 4° C. in a dark environment. On the third day, cells were spun down, resuspended in citric acid buffer (pH 4.5) and adjusted to a concentration of 1×10^6 cells/ml. On the following day, the cells were spun down and resuspended in 1 ml BSA-H (0.1% BSA in PBS buffer). 150 μg RNase A (DNase free) was added to the solution and cells were incubated at 37° C. for 30 minutes. The cells were washed once with BSA-H and the pellet was resuspended in 1 ml 100 μg/ml propidium iodine (PI) and stored overnight at room temperature in the dark. On the following day, cells were analyzed by flowcytometry (Gao et al. (1998) Biochem Pharmaco 56, 105–112).
To further examine the time- and sequence-dependent interaction between HU and Gem, the effect of HU on cell cycle was studied. […] As Gem function requires DNA synthesis, the increased percent of cells in S-phase after 4 to 8 hours after exposure to HU is likely to augment its function.

KB cells [3] = assay: colony-forming assay; type: cell-based, human; settings: drug alone (0.1 mM HU or 0.3 μM Gem)
KBHURs clone = settings: cited from earlier work
hRRM2 mRNA in KB cells = assay: Northern blot of hRRM2 mRNA after exposure to HU; type: cell-based, human; settings: 0.1 mM HU
DNA of KB cells = settings: any HU treatment schedule (control)
RR activity in KB cells = target: T1, RR activity in KB cells (Homo sapiens, UniProt P31350); assay: in vivo RR activity assay (permeabilized cells); type: cell-based; settings: 0.1 mM HU
T1 construct: endogenous in cells; host or cells: KB cells (human oropharyngeal carcinoma), permeabilized with lysolecithin
T1 sequence (P31350 1-389): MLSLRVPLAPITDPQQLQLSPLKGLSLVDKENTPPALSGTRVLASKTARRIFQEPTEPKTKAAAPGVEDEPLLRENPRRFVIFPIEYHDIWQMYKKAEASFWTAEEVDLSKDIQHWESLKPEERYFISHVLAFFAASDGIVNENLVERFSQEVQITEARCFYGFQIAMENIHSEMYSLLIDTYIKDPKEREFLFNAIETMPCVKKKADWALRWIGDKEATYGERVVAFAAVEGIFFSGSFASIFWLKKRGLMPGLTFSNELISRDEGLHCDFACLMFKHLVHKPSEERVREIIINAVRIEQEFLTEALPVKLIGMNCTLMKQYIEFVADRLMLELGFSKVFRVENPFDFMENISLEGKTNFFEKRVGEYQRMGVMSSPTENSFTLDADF
Protocol: […] cells were plated in duplicate in 60-mm dishes. Cells were treated with 0.1 mM HU and harvested at the indicated time points. To permeabilize the cells, they were washed twice in Solution A (150 mM sucrose, 80 mM KCL, 35 mM HEPES, pH 7.4, 5 mM potassium phosphate, pH 7.4, 5 mM MgCl2, 0.5 mM CaCl2), resuspended in 500 μl of cold Solution A containing 0.25 mg/ml lysolecithin, and incubated for 1 minute at 4° C. To measure the activity of ribonucleoside diphosphate reduction and DNA synthesis, 1×10^6 permeabilized cells were incubated at 37° C. for 10 minutes in 300 μl of 50 mM HEPES, pH 7.4, 10 mM MgCl2, 8 mM dithiothreitol, 0.06 mM FeCl3, 7.5 mM potassium phosphate, pH 7.4, 0.75 mM CaCl2, 10 mM phosphoenolpyruvate, 0.2 mM ^3H-rCDP, 0.2 mM rGDP, 0.2 mM rADP, 0.2 mM dTDP. Following incubation, 150 μl of the suspension mixture was taken out, resulting in two samples, and mixed with 30 μl of 60% perchloric acid/0.1% sodium pyrophosphate. After a 15-minute incubation on ice, 1 ml ddH2O was added to dilute the mixture and then it was centrifuged to precipitate any acid-insoluble material. Pellets were extracted with 0.1 ml 0.2 N NaOH and incubated at 37° C. for 30 minutes.
An in vivo RR activity assay was performed at the same time points as above described. […] The results are consistent with the observed levels of hRRM2 mRNA and protein expression.

[4] = tested on: intracellular dNTP pools in KB cells; assay: dNTP pool assay; type: cell-based, human
Protocol: After treatment at designated time points with HU and/or Gem, cells were trypsinized, washed with PBS and viable cells were counted by Trypan Blue dye exclusion. Cells were transferred to 1.5 ml Eppendorf tubes and pelleted by brief centrifugation. Cell pellets were mixed with 100 μl 15% trichloroacetic acid and kept on ice for 10 minutes. It was then centrifuged for 5 minutes and the supernatant collected. dNTPs were extracted with two 50 μl aliquots of freon/trioctylamine (55%:45%). After each centrifugation, the supernatant was saved. 5 μl aliquots of each sample were used to check dATP, dCTP, dGTP, and dTTP concentrations. Each measurement was performed in duplicate (Zhou et al. (1998) Biochem Pharmaco 55, 1657–1665).
The reaction mixture contained 50 mM Tris-HCl (pH 7.5), 10 mM MgCl2, 5 mM DTT, 0.25 μM template/primer, 1.25 μM ^3H-dATP (for dCTP, dGTP, and dTTP assays) or ^3H-dTTP (for dATP assay), and 0.2 units of Sequenase (2.0) in a total volume of 50 μl. DNA synthesis was allowed to proceed for twenty minutes at room temperature and then the reaction was stopped and 40 μl of the reaction mixture was spotted onto Whatman DE81 ion exchange paper (2.4 cm diameter). The paper was dried, washed with 5% Na2HPO4 (3×10 min.), and rinsed once with distilled water and once with 95% ethanol. Samples were counted in a liquid scintillation counter and compared to standard samples prepared in the presence of 0.25, 0.5, and 1.0 pmol/μl of each dNTP.
To evaluate the effect of HU on dNTP pools in KB cells, each dNTP pool was measured as described in the Materials and Methods. dATP and dCTP were the most susceptible of the four dNTP pools to inhibition by HU. A decrease in these intracellular pools commenced after 1 hour of exposure to HU. The decline continued, with the dCTP pool reaching a nadir of approximately 15% of the control at 4 hours. The dATP pool reached a nadir after 8 hours. In a second phase, between 8 and 24 hours after exposure to HU, the dATP and dCTP pools slowly recovered to about 80% of their starting level. […] The decline and recovery of the dCTP and dATP pools paralleled the results of the colony-forming study. The initial drop in hRRM2 mRNA and protein, observed after 2–4 hours of HU exposure, could contribute to the rapid decline in dCTP and dATP pools seen after 4 hrs, while the subsequent overexpression of hRRM2 mRNA and protein would provide the needed activity to allow gradual recovery of the levels of dCTP and dATP.

human RR = target: T2, human RR (Homo sapiens, UniProt P23921); assay: inhibition of human RR activity by C-terminal RRM2 peptide added to the enzyme in vitro; type: biochemical
T2 sequence (P23921 1-792): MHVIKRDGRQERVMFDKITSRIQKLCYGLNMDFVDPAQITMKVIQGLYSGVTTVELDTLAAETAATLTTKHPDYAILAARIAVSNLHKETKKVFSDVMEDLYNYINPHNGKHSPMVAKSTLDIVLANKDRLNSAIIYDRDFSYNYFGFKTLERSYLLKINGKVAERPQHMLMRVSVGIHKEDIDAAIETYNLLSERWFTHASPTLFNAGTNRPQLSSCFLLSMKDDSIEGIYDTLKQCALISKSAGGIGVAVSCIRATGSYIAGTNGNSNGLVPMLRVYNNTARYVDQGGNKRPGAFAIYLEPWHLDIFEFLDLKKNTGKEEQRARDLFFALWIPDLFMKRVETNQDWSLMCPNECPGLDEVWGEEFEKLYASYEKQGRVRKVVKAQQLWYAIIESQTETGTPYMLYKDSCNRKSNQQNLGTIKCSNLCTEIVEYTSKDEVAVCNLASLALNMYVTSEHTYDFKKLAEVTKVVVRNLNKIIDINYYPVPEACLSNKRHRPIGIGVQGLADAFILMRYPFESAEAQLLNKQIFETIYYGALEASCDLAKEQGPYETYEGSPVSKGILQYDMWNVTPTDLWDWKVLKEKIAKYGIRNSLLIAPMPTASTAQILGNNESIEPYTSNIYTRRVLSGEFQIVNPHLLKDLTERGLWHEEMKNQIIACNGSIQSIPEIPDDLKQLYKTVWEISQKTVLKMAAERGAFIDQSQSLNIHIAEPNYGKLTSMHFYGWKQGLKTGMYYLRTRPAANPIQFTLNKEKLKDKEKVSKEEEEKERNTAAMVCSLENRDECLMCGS
Source text: Other compounds that can be used to inhibit RRM1 and RRM2 or RRM1 and p53R2 interaction include a peptide or polypeptide containing an amino acid sequence at the C-terminus of RRM2. […] It was further observed that a truncated form of the M2 subunit, lacking these 7 amino acids at the C-terminus, fails to form a complex with the corresponding large subunit M1. […] Thus, methods of treating a cell proliferation-associated disorder using the peptide of SEQ ID NO:5 or its functional equivalents are within the scope of the invention. Peptides or polypeptides that are functionally equivalent to SEQ ID NO:5 can be either longer or shorter than SEQ ID NO:5, or contain substitute amino acids within SEQ ID NO:5, as long as they are capable of inhibiting the interaction between RRM1 and RRM2 or RRM1 and p53R2. Such peptides or polypeptides can be generated and used according to the methods described above or any other methods well known in the art.

[5] = target: T3, ribonucleotide reductase M1 subunit (RRM1) (human, UniProt P23921 1-792, limits assumed); assay: complex formation assay (method not described)
T3 construct: For the truncation experiment it says only 'the corresponding large subunit M1'; The construct is not described; also called large subunit M1
T3 sequence (looked up): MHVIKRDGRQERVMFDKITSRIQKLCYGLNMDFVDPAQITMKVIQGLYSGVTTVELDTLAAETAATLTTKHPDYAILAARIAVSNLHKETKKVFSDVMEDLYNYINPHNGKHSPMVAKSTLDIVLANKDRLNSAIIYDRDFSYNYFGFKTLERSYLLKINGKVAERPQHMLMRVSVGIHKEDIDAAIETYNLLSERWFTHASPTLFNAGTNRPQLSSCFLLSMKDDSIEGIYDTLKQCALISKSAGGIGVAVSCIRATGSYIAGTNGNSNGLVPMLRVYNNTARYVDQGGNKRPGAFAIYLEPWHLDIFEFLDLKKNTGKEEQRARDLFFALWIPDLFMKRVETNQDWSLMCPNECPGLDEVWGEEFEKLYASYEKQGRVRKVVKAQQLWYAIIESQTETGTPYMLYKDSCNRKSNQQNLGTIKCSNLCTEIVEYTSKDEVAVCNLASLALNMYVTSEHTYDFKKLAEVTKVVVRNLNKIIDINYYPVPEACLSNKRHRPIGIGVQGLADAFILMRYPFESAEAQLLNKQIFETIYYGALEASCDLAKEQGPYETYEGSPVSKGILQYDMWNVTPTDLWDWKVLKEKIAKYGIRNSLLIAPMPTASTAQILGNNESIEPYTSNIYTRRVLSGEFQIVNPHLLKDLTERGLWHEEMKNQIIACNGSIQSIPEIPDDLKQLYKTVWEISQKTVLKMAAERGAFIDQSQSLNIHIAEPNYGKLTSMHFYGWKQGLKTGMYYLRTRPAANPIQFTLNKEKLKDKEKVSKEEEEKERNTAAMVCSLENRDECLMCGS

## NC(=O)NO [HU, hydroxyurea]
[1]
  hRRM2 protein expression: decrease
KB cells [2]
  percentage of cells in G1: remained stable
  percentage of cells in G2/M: declined
  percentage of cells in S-phase: approximately doubled
KB cells [3]
  colony formation, % of untreated controls: approximately 50%
KBHURs clone
  increase in resistance to HU over KBwt cells: 15 fold
hRRM2 mRNA in KB cells; 2 hours
  decrease of hRRM2 mRNA relative to untreated sample: 20%
hRRM2 mRNA in KB cells; 4 hours
  hRRM2 mRNA, % of control levels: 60%
DNA of KB cells
  incorporation of 3H-labeled CDP into DNA: did not vary significantly
RR activity in KB cells; 8-hour point
  RR activity: recovered to the level of the control
RR activity in KB cells; 4 hours
  RR activity, % of the control: 60%
[4]; HU exposure
  dTTP and dGTP pools over time: did not vary significantly
  time at which dATP pool reached a nadir: 8 h
[4]; HU, 4 hours
  dCTP pool nadir, % of the control: approximately 15%
[4]; between 8 and 24 hours after exposure to HU
  dATP and dCTP pools, % of starting level after recovery: about 80%

## FTLDADF (synthetically generated peptide)
Human RR; added to the enzyme in vitro at ratio 10:1 (peptide:enzyme)
  suppression of human RR activity: dramatically suppress
Human RR; in vitro
  inhibition of RR activity compared with RR inhibitors hydroxyurea and triapine: superior

B1: truncated form of the M2 subunit, lacking the 7 amino acids at the C-terminus (enzyme, human, UniProt P31350 1-382, looked up)
chain: MLSLRVPLAPITDPQQLQLSPLKGLSLVDKENTPPALSGTRVLASKTARRIFQEPTEPKTKAAAPGVEDEPLLRENPRRFVIFPIEYHDIWQMYKKAEASFWTAEEVDLSKDIQHWESLKPEERYFISHVLAFFAASDGIVNENLVERFSQEVQITEARCFYGFQIAMENIHSEMYSLLIDTYIKDPKEREFLFNAIETMPCVKKKADWALRWIGDKEATYGERVVAFAAVEGIFFSGSFASIFWLKKRGLMPGLTFSNELISRDEGLHCDFACLMFKHLVHKPSEERVREIIINAVRIEQEFLTEALPVKLIGMNCTLMKQYIEFVADRLMLELGFSKVFRVENPFDFMENISLEGKTNFFEKRVGEYQRMGVMSSPTENS
notes: domain: truncated form lacking the 7 amino acids at the C-terminus; To build it, delete the last 7 residues (FTLDADF) of RRM2; also called truncated M2
[5]
  binding result: no binding
